Experimental data reported in US20230113378A1, “Methods Of Treating Multiple Sclerosis” (priority 2021, published 2023).
Where “and” joins values, the source holds several entries; their conditions need not be identical. Equal values may be shown once. Entries after “also recorded” stand apart in the source; their conditions may differ.

Legend:
influenza vaccine = details: observed previously; cited from earlier work
[1] = test system: SARS-CoV-2 anti-spike-protein (spike) antibody; assay: SARS-CoV-2 anti-spike IgG ELISA before and after COVID-19 vaccination in RMS patients on ponesimod (study AC-058B202); assay type: in vivo, human
Procedure: (§1) Participants in this study receiving 20 mg ponesimod who reported COVID-19 vaccination were analyzed. Blood samples collected before and at least 3 weeks after COVID-19 vaccination were tested for SARS-CoV-2 anti-spike-protein (spike) antibody concentrations (Human SARS-CoV-2 PreSpike IgG ELISA, Nexelis). Response to vaccination was defined as seroconversion in case of negative pre-vaccination antibody testing, or a 4-fold antibody concentration increase in case of positive pre-vaccination antibody result. COVID-19 infection adverse events (AEs) were evaluated in this study sub-population.
Of the 134 participants, 49 participants had both pre- and post-vaccination blood samples tested for anti-spike antibody concentrations. Out of these 49 participants, 40 (81.6%) met the pre-specified definition of response to COVID-19 vaccination. […] Response was defined as pre-vaccination titer≤lower limit of quantification (LLOQ) and post-vaccination titer >LLOQ; or pre-vaccination titer >LLOQ (i.e., seroconversion in case of negative pre-vaccination antibody testing) and post-vaccination titer >4× increase (i.e., a 4-fold antibody concentration increase in case of positive pre-vaccination antibody result).
Patients in the Phase 2 extension study AC-058B202 receiving ponesimod 20 mg who reported COVID-19 vaccination were included in this analysis. Blood samples collected before and at least 3 weeks after vaccination were evaluated with Human SARS-CoV-2 PreSpike IgG (spike antibody) enzyme-linked immunoassay (Nexelis). A responder to vaccination was defined as seroconversion in case of negative pre-vaccination antibody testing, or a 4-fold antibody concentration increase in case of positive pre-vaccination antibody result. Responder analysis was performed by vaccine type, and by pre-vaccination lymphocyte count.

[2] = COVID-19 infection adverse events in vaccinated RMS patients on ponesimod (study AC-058B202); assay type: in vivo, human
Procedure: as §1

influenza A/PR/8/34 = assay: Neutralizing antibody response to inactivated influenza A/PR/8/34 immunization in mice on ponesimod chow; assay type: in vivo, female BALB/c mice
Description: The neutralizing antibody response to a single intramuscular injection of purified and inactivated influenza A/PR/8/34 was compared in female BALB/c mice that were maintained on different oral ponesimod regimens (Group 1: standard chow; Group 2: continuous specialty chow with ponesimod at 1000 ppm; Group 3: specialty chow with a 4-day discontinuation around immunization).
Mean percentage inhibition of viral infection by A/PR/8/34 with serum samples, ±SEM.
Table 5 presents data regarding dilution from neat serum that results in 50% inhibition of viral infection (ID50).

[3] = inactivated virus vaccines, post-vaccination
[4] = inactivated virus vaccines, pre-vaccination
[5] = mRNA vaccines, post-vaccination
[6] = mixed vaccines, post-vaccination
[7] = mixed vaccines, pre-vaccination
[8] = subjects pre-vaccination negative
[9] = subjects pre-vaccination positive
[10] = unspecified vaccines, post-vaccination
[11] = unspecified vaccines, pre-vaccination
[12] = viral vector vaccines, post-vaccination

SMILES: CCc1cc(/C(C)=N/OCc2ccc(C3CCCCC3)c(C(F)(F)F)c2)ccc1CN1CC(C(=O)O)C1 [siponimod]
- Vaccination response to the influenza vaccine (influenza vaccine): reduced vaccination response

SMILES: CCC/N=C1\S/C(=C\c2ccc(OC[C@H](O)CO)c(Cl)c2)C(=O)N1c1ccccc1C [ponesimod, (R)-5-[3-chloro-4-(2,3-dihydroxy-propoxy)-benz[Z]ylidene]-2-([Z]-propylimino)-3-o-tolyl-thiazolidin-4-one]
- Fold increase from baseline of S binding antibody, geometric mean (95% CI) ([1]; all vaccines, 1st vaccine regimen, ponesimod 20 mg): 12.90 (7.64; 21.78)
- Responders (n/N) (%) (95% CI) ([1]; all vaccines, seroconversion or >4-fold increase): 40 (81.6%) n/N (%)
- Fold increase from baseline, geometric mean (95% CI) ([1]; inactivated virus vaccines): 1.29 (0.50; 3.32)
- Responders (n/N) (%) (95% CI) ([1]; inactivated virus vaccines): 2 (33.3%) n/N (%)
- Positive sample n (%) (95% CI) [1, 3]: 6 (66.7%) (29.93; 92.51) n (%)
- S binding antibody concentration, geometric mean (95% CI) [1, 3]: 84.22 (<LLOQ; 189.22) EU/mL
- Positive sample n (%) (95% CI) [1, 4]: 3 (50.0%) (11.81; 88.19) n (%)
- S binding antibody concentration, geometric mean (95% CI) [1, 4]: 65.88 (<LLOQ; 203.92) EU/mL
- Patients meeting antibody concentration responder criteria ([1]; mRNA COVID-19 vaccines and/or pre-vaccination lymphocyte counts ≥500 cells/mm^3): > 90%
- Fold increase from baseline, geometric mean (95% CI) ([1]; mRNA vaccines): 20.68 (11.35; 37.68)
- Responders (n/N) (%) (95% CI) ([1]; mRNA vaccines): 29 (90.6%) n/N (%)
- Positive sample n (%) (95% CI) [1, 5]: 62 (88.6%) (78.72; 94.93) n (%)
- S binding antibody concentration, geometric mean (95% CI) [1, 5]: 833.22 (513.88; 1351.00) EU/mL
- Positive sample n (%) (95% CI) ([1]; mRNA vaccines, pre-vaccination): 5 (15.6%) (5.28; 32.79) n (%)
- Responders n (%) ([1]; mixed or unspecified vaccine types, 4 participants): 4 (100%) n (%)
- Fold increase from baseline, geometric mean ([1]; mixed vaccines): 11.49
- Positive sample n (%) [1, 6]: 5 (100.0%) n (%)
- S binding antibody concentration, geometric mean [1, 6]: 1525.40 EU/mL
- Positive sample n (%) [1, 7]: 1 (33.3%) n (%)
- S binding antibody concentration, geometric mean [1, 7]: <LLOQ
- SARS-CoV-2 S binding antibody concentration, geometric mean (95% CI) ([1]; post-vaccination, all vaccines, 1st vaccine regimen, ponesimod 20 mg): 621.25 (414.96; 930.08) EU/mL
- Positive sample n (%) (95% CI) ([1]; post-vaccination, all vaccines, positive = value > LLOQ): 89 (86.4%)(78.25; 92.37) n (%)
- Responders n (%) ([1]; pre-vaccination lymphocyte count <500 cells/mm^3, 16 participants): 9 (56.3%) n (%)
- Responders n (%) ([1]; pre-vaccination lymphocyte count ≥500 cells/mm^3, 32 participants): 30 (93.8%) n (%)
- Positive sample n (%) (95% CI) ([1]; pre-vaccination, all vaccines, positive = value > LLOQ): 11 (22.4%) (11.77; 36.62) n (%)
- Post-vaccination Negative N (%) [1, 8]: 5 (13.2%) N (%)
- Post-vaccination Responder N (%) [1, 8]: 33 (86.8%) N (%)
- Post-vaccination Positive N (%) ([1]; subjects pre-vaccination negative (seroconversion)): 33 (86.8%) N (%)
- Post-vaccination Negative N (%) [1, 9]: 0 N (%)
- Post-vaccination Positive N (%) [1, 9]: 11 (100.0%) N (%)
- Post-vaccination Responder N (%) [1, 9]: 7 (63.6%) N (%)
- Fold increase from baseline, geometric mean ([1]; unspecified vaccines): 182.01
- Positive sample n (%) [1, 10]: 2 (100.0%) n (%)
- S binding antibody concentration, geometric mean [1, 10]: 944.31 EU/mL
- Positive sample n (%) [1, 11]: 0 n (%)
- S binding antibody concentration, geometric mean [1, 11]: <LLOQ
- Fold increase from baseline, geometric mean (95% CI) ([1]; viral vector vaccines): 7.76 (2.22; 27.11)
- Responders (n/N) (%) (95% CI) ([1]; viral vector vaccines): 5 (71.4%) n/N (%)
- Positive sample n (%) (95% CI) [1, 12]: 14 (82.4%) (56.57; 96.2) n (%)
- S binding antibody concentration, geometric mean (95% CI) [1, 12]: 390.49 (140.01; 1089.07) EU/mL
- Positive sample n (%) (95% CI) ([1]; viral vector vaccines, pre-vaccination): 2 (28.6%) (3.67; 70.96) n (%)
- COVID-19 infection AEs leading to death, n (%) ([2]; >=14 D Post Vx): 0 n (%)
- COVID-19 infection AEs leading to treatment discontinuation, n (%) ([2]; >=14 D Post Vx): 0 n (%)
- COVID-19 infection AEs leading to treatment interruption, n (%) ([2]; >=14 D Post Vx): 4 (3.0%) n (%)
- COVID-19 infection AEs, severity Mild, n (%) ([2]; >=14 D Post Vx): 13 (9.7%) n (%)
- COVID-19 infection AEs, severity Moderate, n (%) ([2]; >=14 D Post Vx): 4 (3.0%) n (%)
- COVID-19 infection AEs, severity Severe, n (%) ([2]; >=14 D Post Vx): 0 n (%)
- Serious COVID-19 infection AEs, n (%) ([2]; >=14 D Post Vx): 0 n (%)
- Subjects with COVID-19 infection AEs, n (%) ([2]; >=14 D Post Vx): 17 (12.7%) n (%)
- COVID-19 infection AEs leading to death, n (%) ([2]; >=28 D Post Vx): 0 n (%)
- COVID-19 infection AEs leading to treatment discontinuation, n (%) ([2]; >=28 D Post Vx): 0 n (%)
- COVID-19 infection AEs leading to treatment interruption, n (%) ([2]; >=28 D Post Vx): 4 (3.0%) n (%)
- COVID-19 infection AEs, severity Mild, n (%) ([2]; >=28 D Post Vx): 13 (9.7%) n (%)
- COVID-19 infection AEs, severity Moderate, n (%) ([2]; >=28 D Post Vx): 4 (3.0%) n (%)
- COVID-19 infection AEs, severity Severe, n (%) ([2]; >=28 D Post Vx): 0 n (%)
- Serious COVID-19 infection AEs, n (%) ([2]; >=28 D Post Vx): 0 n (%)
- Subjects with COVID-19 infection AEs, n (%) ([2]; >=28 D Post Vx): 17 (12.7%) n (%)
- COVID-19 infection AEs leading to death, n (%) ([2]; Post-Vx): 0 n (%)
- COVID-19 infection AEs leading to treatment discontinuation, n (%) ([2]; Post-Vx): 0 n (%)
- COVID-19 infection AEs leading to treatment interruption, n (%) ([2]; Post-Vx): 4 (3.0%) n (%)
- COVID-19 infection AEs, severity Mild, n (%) ([2]; Post-Vx): 13 (9.7%) n (%)
- COVID-19 infection AEs, severity Moderate, n (%) ([2]; Post-Vx): 4 (3.0%) n (%)
- COVID-19 infection AEs, severity Severe, n (%) ([2]; Post-Vx): 0 n (%)
- Serious COVID-19 infection AEs, n (%) ([2]; Post-Vx): 0 n (%)
- Subjects with COVID-19 infection AEs, n (%) ([2]; Post-Vx): 17 n (%) and 17 (12.7%) n (%)
- COVID-19 infection AEs leading to death, n (%) ([2]; Pre-Vx): 0 n (%)
- COVID-19 infection AEs leading to treatment discontinuation, n (%) ([2]; Pre-Vx): 0 n (%)
- COVID-19 infection AEs leading to treatment interruption, n (%) ([2]; Pre-Vx): 5 (3.7%) n (%)
- COVID-19 infection AEs, severity Mild, n (%) ([2]; Pre-Vx): 18 (13.4%) n (%)
- COVID-19 infection AEs, severity Moderate, n (%) ([2]; Pre-Vx): 2 (1.5%) n (%)
- COVID-19 infection AEs, severity Severe, n (%) ([2]; Pre-Vx): 0 n (%)
- Serious COVID-19 infection AEs, n (%) ([2]; Pre-Vx): 0 n (%)
- Subjects with COVID-19 infection AEs, n (%) ([2]; Pre-Vx): 20 n (%) and 20 (14.9%) n (%)
- COVID-19 infection AEs leading to treatment interruption, n (%) ([2]; Total): 7 (5.2%) n (%)
- COVID-19 infection AEs, severity Mild, n (%) ([2]; Total): 28 (20.9%) n (%)
- COVID-19 infection AEs, severity Moderate, n (%) ([2]; Total): 6 (4.5%) n (%)
- Subjects with COVID-19 infection AEs, n (%) ([2]; Total): 33 (24.6%) n (%)
- Inhibition titer: dilution from neat serum that results in 50% inhibition of viral infection (ID50) (influenza A/PR/8/34; Concomitant (Group 2), Day 35): 0.004
- Inhibition titer: dilution from neat serum that results in 50% inhibition of viral infection (ID50) (influenza A/PR/8/34; Concomitant (Group 2), Day 63): 0.003
- Inhibition titer: dilution from neat serum that results in 50% inhibition of viral infection (ID50) (influenza A/PR/8/34; Concomitant (Group 2), Day 91): 0.004
- Inhibition titer: dilution from neat serum that results in 50% inhibition of viral infection (ID50) (influenza A/PR/8/34; Concomitant (Group 2, continuous ponesimod chow 1000 ppm), Day −1): 0.050
- Inhibition titer: dilution from neat serum that results in 50% inhibition of viral infection (ID50) (influenza A/PR/8/34; Discontinued (Group 3), Day 35): 0.001
- Inhibition titer: dilution from neat serum that results in 50% inhibition of viral infection (ID50) (influenza A/PR/8/34; Discontinued (Group 3), Day 63): 0.002
- Inhibition titer: dilution from neat serum that results in 50% inhibition of viral infection (ID50) (influenza A/PR/8/34; Discontinued (Group 3), Day 91): 0.003
- Inhibition titer: dilution from neat serum that results in 50% inhibition of viral infection (ID50) (influenza A/PR/8/34; Discontinued (Group 3, 4-day discontinuation around immunization), Day −1): 0.001
- Vaccine (antibody) response compared to control mice (influenza A/PR/8/34; Group 2, continuously on ponesimod chow, inactivated H1N1 influenza vaccine): attenuated vaccine response; also recorded: blunted, but not absent
- Plasma drug levels after wash-out (Group 3, after a 2-day wash-out period): cleared from plasma
- Plasma drug levels (Groups 2 and 3, by Day 5, ponesimod chow 1000 ppm): sufficiently high to reduce lymphocyte counts
